Among the data in a melting point compilation (Tetko et al.; mined from patent text by program, amines drawn as free bases though some values may be those of a salt) are melting point values, retold here.

Consider `CCS(=O)(=O)C1=C(C(=O)c2ccc(S(C)(=O)=O)cc2Cl)C(=O)CCC1`, for which the melting point is 157 to 161 °C.
As for `O=C(O)C1=Cc2cc(Cl)cc(-c3ccccc3)c2OC1C(F)(F)F` (centres undefined), the figure is 196 to 198 °C; as for `CC1(C)NC(=O)OC12CCN(C(=O)OCc1ccccc1)CC2`, 208 to 209 °C.
As for `Fc1ccc(C(Cl)(Cn2cncn2)C(F)(F)F)c(F)c1` (centres undefined), the figure is 87 to 88 °C.
As for `Cn1c(=O)[nH]c2nc(C(F)(F)F)n(Cc3ccccc3)c2c1=O`, the figure is 211 to 213 °C; as for `O=C(O)Cc1csc(-c2ncccc2O)n1`, 175 to 176 °C.
Compound `CCOC(=O)c1cnc2sc(-c3cccnc3)nn2c1=O` returned a melting point of 200 to 202 °C.
Take `N#CC=C(Cc1ccc2c(c1)OCO2)Nc1ccccc1`: the melting point lay within 150 to 151 °C.
Compound `CCCCN=C(O)c1c(Sc2ccccc2)c(Sc2ccccc2)c(Sc2ccccc2)c(Sc2ccccc2)c1C(=O)O` yielded a melting point of 159 to 160 °C.
With `COC1(OC)SC(c2ccncc2)=C(C)NC1=O` the figure was 154 to 155 °C.
As for `NC(=S)NCCN1CCC(Nc2nc3ccccc3n2Cc2ccc(F)cc2)CC1`, the figure is 186 °C; as for `COc1cccnc1Oc1cccc(C#N)c1`, 88 to 89 °C.
As for `C=Cc1cc(CNC(=O)OC(C)(C)C)cc(Cl)c1NS(C)(=O)=O`, the figure is 133 to 135 °C; as for `CCCc1nc2c(N)nc(C)c(C)c2n1CCCC(C)=NOC`, 144 to 146 °C; as for `CCN(CC)CCNc1ccc(CN(C)S(=O)(=O)CC)c2sc3ccccc3c(=O)c12`, 159 to 161 °C.
The compound `CCc1[nH]nc(C(=O)NC2CCCC2)c1[N+](=O)[O-]` displayed a melting point of 156 to 157 °C.
In the case of `O=C(c1cccs1)c1cnn2c(-c3cccc(-c4nnn(Cc5ccncc5)n4)c3)ccnc12`, the melting point was determined as 170 °C.
With `CC1(CCl)CN(C2CCN(c3cccc(OC(F)(F)F)c3)C2=O)C1=O` (centres undefined) the figure was 104 to 106 °C; with `CS(=O)(=O)Nc1cc2occ(NS(C)(=O)=O)c(=O)c2cc1Oc1ccccc1`, 199 to 200 °C.
As for `COC(=O)C1C(=O)Nc2ccccc2CC1c1ccc(OC)cc1` (centres undefined), the figure is 217 to 219 °C.
With `CC(C)(C)OC(=O)NC1CC2CCCC(C1)N2Cc1ccccc1` (centres undefined) the figure was 154 to 155 °C.
Regarding `COc1ccc(S(=O)(=O)Nc2ccccc2NC(=O)c2cccnc2C)cc1`, the melting point was 148 to 149 °C.
With `CCCc1nccn1C(C)COCC1=C(C(=O)OCC)C(c2ccccc2Cl)C2=C(CCCC2=O)N1` (centres undefined) the figure was 127 to 131 °C.
With `CN1C(=O)C(NC(=O)c2ccccc2)C(C)(C)SC1=S` (centres undefined) the figure was 184 to 185 °C; with `N#CCCNC(=O)c1cccc(-c2cccc3nn(Cc4cccc(Cl)c4)cc23)c1`, 185 to 186 °C.
As to `C=CCNc1nc(C)cc(C)n1`, the melting point lay in the range of 62 to 63 °C.
As for `CC1(C)C2CCC(C2)C1CCC(O)CCC1C2CCC(C2)C1(C)C` (centres undefined), the figure is 55 to 56 °C; as for `CN(C)c1ccc([N+](=O)[O-])c(C(O)c2ccccc2)c1` (centres undefined), 95 to 97 °C; as for `CC(C)C(=O)N[C@H]1CC[C@H](CCN2CCC(c3cccc4c3CCO4)CC2)CC1`, 212 °C.
As for `CCOC(=O)C=Cc1cc(Br)cc(C(O)c2ccc(F)cc2)c1` (centres undefined), the figure is 82 to 84 °C; as for `N#Cc1cccc(C(=O)N[C@H]2C[C@H](C(=O)O)Nc3cc(Cl)cc(Cl)c32)c1` (relative stereo), 229 to 231 °C; as for `O=C(O)c1cc(-c2ccccc2)c2sccc2c1`, 234 °C.
In turn, `O=C(NC1CCN(CCCOc2ccccc2C(=O)O)CC1)c1ccccc1` registered a melting point of 207 to 208 °C.
As for `CCOC(=O)c1ccc(NC=Nc2ccc3[nH]cc(CCN4C(=O)c5ccccc5C4=O)c3c2)cc1`, the figure is 110 °C; as for `CC(C)NC(=S)N1CCc2nc(N)sc2C1`, 179 to 180 °C; as for `CC(C)S(=O)(=O)c1snc(OC[Si](C)(C)C)c1C#N`, 98 to 99 °C.
As for `COc1cccc(NC(=O)NC2N=C(c3ccccc3)c3ccccc3N(C)C2=O)c1` (centres undefined), the figure is 216 to 219 °C; as for `O=C(CCCCN1CCC(Cc2ccccc2)CC1)c1ccc2c(c1)-c1ccc(C(=O)CCCCN3CCC(Cc4ccccc4)CC3)c3cccc-2c13`, 126 to 128 °C.
In turn, `Cn1nc(-c2sc(C(=O)NCc3ccccn3)nc2-c2ccccc2)ccc1=O` yielded a melting point of 189 to 190 °C.
As for `CCOC(=O)c1cc(C(=O)OCC)c2c(Cl)cc(Cl)cc2n1`, the figure is 104 to 106 °C; as for `COc1cc(C(=O)c2ncc3ccc(C(=O)O)cn23)ccc1[N+](=O)[O-]`, 313 °C; as for `OCCCOc1ccc(Cl)c(Cl)c1`, 40 to 43 °C.
As for `COc1cc(Cc2ccc3nc(N)nc(N)c3c2)cc(OC)c1OC`, the figure is 219 to 221 °C; as for `CC(O)c1cc(S(N)(=O)=O)sc1S(=O)(=O)c1ccc(O)cc1` (centres undefined), 173 to 175 °C.
With `Cc1ncsc1C(=O)Nc1ccc(-n2nc(C(F)(F)F)c(Cl)c2C2CC2)cc1` the figure was 161 to 164 °C.
For `Clc1ccc(C#Cc2ccccc2)cn1`, the melting point lay within 70 to 72 °C.
In turn, `CC(=O)NCCCCn1cnc2c(N)nc(C)c(C)c21` yielded a melting point of 217 to 219 °C.
Compound `COc1ccc(CC(CCCC(C#N)(c2ccc(OC)c(OC)c2)C(C)C)[N+](=O)[O-])cc1OC` (centres undefined) had a melting point of 107 to 110 °C.
As for `NC(=O)c1ccc([N+](=O)[O-])cc1[N+](=O)[O-]`, the figure is 202 to 204 °C; as for `Cc1ccc(=O)n(-c2cc(F)c(C#N)cc2F)n1`, 159 °C.
In the case of `Cc1ccc(S(=O)(=O)C2=C(C(=O)OC3CCCCC3)C(=O)C=C(C(=O)OC3CCCCC3)C2=O)cc1`, the melting point was in the range of 135 to 137 °C.
With `CCOC(=O)c1cnn(-c2cccc(N(C)C)n2)c1S(N)(=O)=O` the figure was 157 to 160 °C; with `CCCCN1C(=O)NC(=Cc2cc(OC)c(OC)cc2OC)C1=O`, 170 °C.
As for `Cc1oc(-c2ccccc2)nc1COc1cc(CO)on1`, the figure is 99 to 100 °C; as for `CCOC(=O)C1Cc2ccc(Cl)cc2NC1=O` (centres undefined), 182 to 184 °C; as for `CC[C@@H](Nc1nc(NCc2cccnc2)c2ncn(C(C)C)c2n1)C(C)(C)O`, 138 to 145 °C.
Compound `CC(C)CC(OC(=O)c1ccncc1)C(=O)OCc1ccccc1` (racemic) showed a melting point of 49 to 50 °C.
As for `Cc1cccc(Cl)c1NS(=O)(=O)c1nc2sccn2n1`, the figure is 91 to 93 °C.
With `c1ccc(C(c2ccccc2)(c2ccns2)n2cncn2)cc1` the figure was 235 to 240 °C; with `CC(=O)SC(C)CC(=O)N1CCC[C@H]1C(=O)O` (some centres undefined), 175 to 176 °C.
As for `O=C(CCn1cnc2c(=O)[nH]cnc21)Nc1ccc(C(=O)O)cc1`, the figure is 319 to 321 °C; as for `COC(=O)C(Cl)=Cc1ccc(OC)cc1`, 68 to 70 °C.
`O=C(c1ccccc1O)N1CCc2cc(S(=O)(=O)N3CC(c4ccccc4)NC3=O)ccc21` (centres undefined) gave a melting point of 221 °C.
As for `COc1cc(Nc2c(C#N)cnc3cc(-c4ccc(CN5CCOCC5)cc4)sc23)c(Cl)cc1Cl`, the figure is 244 to 245 °C.
As for `O=S(=O)(CCl)c1ncc(Cl)cn1`, the melting point turned out to be 100 °C.
Regarding `CCOc1nc(C2CC2)nc(OC)c1C=O`, the melting point lay within 93 to 94 °C.
As for `O=Cc1ccc2nc3c(cc2c1)-c1cccc2cccc-3c12`, the figure is 245 to 246 °C; as for `Nc1cccc(S(=O)(=O)NCc2ccccn2)c1`, 124 °C.
Take `Nc1nc(N)nc(-c2ccc(S(=O)(=O)c3ccccc3)cc2)n1`: the melting point was greater than 250 °C.
With `CCCCCCCCOc1cc(-c2cccc([N+](=O)[O-])c2)c(OCC(=O)O)c(-c2cccc([N+](=O)[O-])c2)c1` the figure was 129 to 132 °C; with `O=[N+]([O-])c1cnc2cccnc2c1NCc1ccccc1`, 127 to 129 °C; with `CN1Cc2c(C(=O)OC(C)(C)C)ncn2-c2ccc(F)cc2C1=O`, 228 to 229 °C.
As for `OCC1CC(O)C(n2c(Br)nc3cc(Cl)c(Cl)cc32)C1` (centres undefined), the figure is 218 to 220 °C; as for `COc1ccc2cc(C#CC(C)N(O)C(N)=O)ccc2c1` (centres undefined), 181 to 183 °C.
As to `CC(C)Nc1nc(Cl)nc(NCCS)n1`, the melting point lay within 141 to 146 °C.
As for `Cc1ccc(F)c2c1N(CC(=O)Nc1ccccc1F)C(=O)C21COc2cc3c(cc21)CCO3` (centres undefined), the figure is 250 to 255 °C.
With `CC(O)(C#Cc1ccc(S(=O)(=O)N2CCCC2)cc1)C(F)(F)F` (centres undefined) the figure was 140 to 143 °C; with `O=CCCc1cn(-c2cccnc2)c2ccccc12`, 44 to 45 °C.
As for `O=C1Nc2cc(F)ccc2N2CCN(CCCCc3ccncc3)CC12` (centres undefined), the figure is 262 to 264 °C; as for `CC(=O)OC1CCC2(C)C3=CCC4(C)C(C(C)=O)CCC4C3CCC2C1` (centres undefined), 163 to 165 °C; as for `CCOC(=O)c1cc2c(cn1)[nH]c1ccccc12`, 229 °C.
With `CCOC(=O)c1cnc2cc(Cl)ccc2c1Cl`, the melting point was 81 to 82 °C.
With `COc1ccc(-c2csc(Nc3cc4ccccc4cn3)n2)cc1OC` the figure was 200 to 203 °C.
With `C=CC(C)c1cc(C)c2c(c1O)C(N(C)C(=O)c1cccnc1)C1CCCCC21` (centres undefined) the figure was 183 to 184 °C; with `O=C1CC(c2cccc(-c3noc(CCCO)n3)c2)=Nc2ccc(-c3ccc(F)cc3)cc2N1`, 220 to 222 °C; with `CCC12CCC3C4CCCC=C4CCC3C1CCC2=O` (centres undefined), 101 to 102 °C.
As for `COC(=O)CCC/C=C\[C@@H]1C[C@@H](NS(=O)(=O)c2ccc(Cl)cc2)CN1S(=O)(=O)c1ccc(Cl)cc1`, the figure is 95 to 96 °C.
In turn, `CN(Cc1ccc(CCn2cnc3cc(-c4ccc(Cl)cc4)sc3c2=O)cc1)C(=O)C1CC1` returned a melting point of 178 °C.
With `CCC(C)C(NC(=O)OC)C(=O)NC(Cc1ccccc1)C(O)CN(Cc1ccc(-c2cncs2)cc1)NC(=O)C(NC(=O)OC)C(C)C` (centres undefined) the figure was 202 to 204 °C.

Usually melting point stands for the temperature, or range, at which the solid turns liquid.
